Assay results published in patent publication US8187646B2, “Nucleotide pyrophosphatase inhibitor and coenzyme regenerating systems” (Puratos N.V., priority 2004, dated 2012).
Entries after “also recorded” stand apart in the source; their conditions may differ. Each block holds one compound with its values, some of them ahead of it.

Legend:
[1] = tested on: wheat flour nucleotide pyrophosphatase (NPP); test: In vitro NPP inhibition studies (NAD+ degradation by wheat flour extract); assay type: biochemical; settings: for ability to inhibit NPP in wheat flour: ADP about 1-2 mM, phosphates tested at 10 g/l; for reactivation of the inhibited enzyme by divalent metal ions: addition of divalent ions (Mg2+, Mn2+; excess MgCl2, MnCl2, ZnCl2, CaCl2)
Description: As an example of nucleotide pyrophosphatase inhibition, pyrophosphate was tested.
To perform in vitro nucleotide pyrophosphatase (NPP) inhibition studies, a reaction mixture of 5 ml was made containing 2.5 ml of flour extract (see Example 12), 1.5 ml of NAD^+ or NADH solution and 1 ml of potential inhibitor. The coenzymes and inhibitors were dissolved in a 0.2 M acetate buffer at pH 5.5. The final coenzyme concentration was 0.5 mM, unless otherwise mentioned. The different phosphates ([…] (Na2H2P2O7), sodium metaphosphate ((NaPO3)n), pentasodium tripolyphosphate (Na5P3O10), tetrasodium pyrophosphate (Na4P2O7) and dicalcium pyrophosphate (CaH2P2O7)) were tested in a concentration of 10 g/l. For the reactivation experiments with metal ions and to test a synergetic effect of glycine with EDTA the reaction mixture was adapted: 500 μl of inhibitor was added together with 500 μl of cation or glycine instead of 1 ml inhibitor. For the reactivation experiments with metal ions, the chloride forms of the cations were used, i.e. MgCl2, MnCl2, ZnCl2 and CaCl2.
A flour extract was prepared based on the method described by Honold et al. (1966, Cereal Chemistry 43:517-528). To 5 g of flour, 25 ml of an aqueous 12.5% sucrose solution was added. The solution was homogenised with an UltraTurrax mixer (IKA Werke, Janke & Kunkel GmbH & CoKG, Staufen, Germany). This homogenised flour suspension was centrifuged during 5 minutes at 1000 rpm (77 g) (SS34 rotor, Sorvall RC 5B centrifuge). The supernatant was recovered and filtrated through Whatman No. 1 filter paper. The filtrate was used as crude flour extract. All steps were carried out between 0° C. and 5° C.

[2] = tested on: nicotinamide coenzymes NAD+/NADH in dough systems; test: Coenzyme (NAD+/NADH) concentrations in dough systems (mini doughs); parameters: species or system wheat; settings: 0.3 g calcium pyrophosphate per 100 g flour; before and after 60 minutes dough resting at 25° C.
Description: The oxidised (NAD^+) and reduced (NADH) form of the nicotinamide coenzymes were extracted from doughs with an acid and alkaline extraction method respectively.
The coenzymes, NAD^+ and NADH, can be determined with an isocratic reversed phase HPLC method on a Varian Prostar HPLC system. Separation of the coenzymes NAD^+ and NADH was carried out on a Chromsep Microspher 3C18 column (3 μm particle size, 4.6×100 mm, Chrompack). The mobile phase was 96% 0.15 M citrate-sodium phosphate buffer (pH 6.8) containing 1 mM EDTA, and 4% methanol (30° C.). The flow rate was 0.5 ml/min and detection was accomplished by UV absorption at 260 nm (Varian Prostar UV 320).
All samples were filtrated (Sartorius Minisart RC15, 0.45 μm) and sample injection (20 μl) was accomplished with a Varian Prostar 410 autosampler. The nucleotide concentration was measured by the peak area of the chromatogram with calibration curves, which were prepared using a known amount of coenzymes.
Baking tests were performed with mini doughs (150 g).
The doughs were kneaded with a pin mixer during 4.5 minutes, after which they were incubated during 20 minutes at 25° C. The dough was sheeted and incubated again at 25° C. during 20 minutes, after which it was sheeted and incubated for 50 minutes at 36° C. and at a relative humidity of 80%. […] Bread volume after baking was determined by the rapeseed displacement method.

[3] = inhibitor at 4 mM, in vitro tests

Compound: O[C@H](CS)[C@H](O)CS (racemic) [DTT, dithiothreitol]
- inhibition of the NPP [1, 3]: inhibited the NPP at some extent

Compound: Nc1ncnc2c1ncn2[C@@H]1O[C@H](COP(=O)(O)OP(=O)(O)O)[C@@H](O)[C@H]1O [ADP]
- inhibition of the NPP ([1]; ADP 1 mM): inhibit the NPP partially
- ability to inhibit NPP in wheat flour [1]: able to inhibit

Compound: O=P([O-])(O)OP(=O)([O-])O.[Ca+2] [Ca-pyrophosphate, CaH2P2O7]
- inhibition of NAD+ degradation by a wheat flour extract ([1]; 50 to 100 mM Ca-pyrophosphate): completely inhibit

Compound: O=C(O)CN(CCN(CC(=O)O)CC(=O)O)CC(=O)O [EDTA]
- reactivation of the inhibited enzyme by divalent metal ions [1]: reactivated partially
- inhibition of the wheat flour NPP ([1]; from a concentration of 4 mM EDTA on, in vitro): complete inhibition

- inhibition of the NPP [1, 3]: inhibited the NPP at some extent
Compound: N[C@@H](CS)C(=O)O [L-cysteine]

Compound: O=P(O)(O)OP(=O)(O)O [pyrophosphate]
- inhibition of NAD+ degradation by a wheat flour extract ([1]; 10 mM pyrophosphate): Partial inhibition
- inhibition of NAD+ degradation by a wheat flour extract ([1]; 20 mM pyrophosphate): Partial inhibition
- reactivation of the inhibited enzyme by divalent metal ions [1]: This is not the case; also recorded: could not reactivate the enzyme
- mode of inhibition of wheat flour nucleotide pyrophosphatase ([1]; suggested: no reactivation by metal ions, pyrophosphate split into phosphate by flour extract): competitive inhibitor
- coenzyme concentrations (NAD+ and NADH) in dough [2]: higher coenzyme concentrations were observed

Compound: O=P(O)(O)OP(=O)(O)O [sodium pyrophosphate, Na2H2P2O7]
- inhibition of the NPP enzyme ([1]; 100 mM sodium pyrophosphate): completely inhibited

Compound: O=P([O-])([O-])OP(=O)([O-])OP(=O)([O-])[O-].[Na+].[Na+].[Na+].[Na+].[Na+] [tripolyphosphate, pentasodium tripolyphosphate (Na5P3O10)]
- ability to inhibit NPP in wheat flour [1]: able to inhibit

Compound: sodium metaphosphate ((NaPO3)n)
- ability to inhibit NPP in wheat flour [1]: able to inhibit
